Data taken from US20070203121A1, “SUBSTITUTED INDOLE COMPOUNDS, THEIR PREPARATION AND USE IN MEDICAMENTS” (LABORATORIOS DEL DR. ESTEVE S.A, priority 2004, published 2007).
pKi: −log10 of the molar value.

Molecular target: T1, 5HT6-human recombinant receptor (Homo sapiens, UniProt P50406)
T1 construct: purchased Receptor Biology; host or cells: HEK-293 cells (membranes)
Experiment: Binding to Serotonin Receptor 5-HT6 ([3H]-LSD displacement)
Conditions: membranes of HEK-293 cells expressing the receptor; radioligand [3H]-LSD 2.7 nM; 60 minutes at 37° C.; triplicate
Description: I) Binding to Serotonin Receptor 5-HT6
Cell membranes of HEK-293 cells expressing the 5HT6-human recombinant receptor were supplied by Receptor Biology. In said membranes the receptor concentration is 2.18 pmol/mg protein and the protein concentration is 9.17 mg/ml. The experimental protocol follows the method of B. L. Roth et al. [B. L. Roth, S. C. Craigo, M. S. Choudhary, A. Uluer, F. J. Monsma, Y. Shen, H. Y. Meltzer, D. R. Sibley: Binding of Typical and Atypical Antipsychotic Agents to 5-Hydroxytryptamine-6 and Hydroxytryptamine-7 Receptors. The Journal of Pharmacology and Experimental Therapeutics, 1994, 268, 1403] with the following slight changes. The respective part of the literature description is hereby incorporated by reference and forms part of the disclosure.
The commercial membrane is diluted (1:40 dilution) with the binding buffer: 50 mM Tris-HCl, 10 mM MgCl2, 0.5 mM EDTA (pH 7.4). The radioligand used is [^3H]-LSD at a concentration of 2.7 nM with a final volume of 200 μl. Incubation is initiated by adding 100 μl of membrane suspension, (≈22.9 μg membrane protein), and is prolonged for 60 minutes at a temperature of 37° C. The incubation is ended by fast filtration in a Brandel Cell Harvester through fiber glass filters made by Schleicher & Schuell GF 3362 pretreated with a solution of polyethylenimine at 0.5%. The filters are washed three times with three milliliters of buffer Tris-HCl 50 mM pH 7.4. The filters are transferred to flasks and 5 ml of Ecoscint H liquid scintillation cocktail are added to each flask. The flasks are allowed to reach equilibrium for several hours before counting with a Wallac Winspectral 1414 scintillation counter. Non-specific binding is determined in the presence of 100 μM of serotonin. Tests were made in triplicate. The inhibition constants (Ki, nM) were calculated by non-linear regression analysis using the program EBDA/LIGAND described in Munson and Rodbard, Analytical Biochemistry, 1980, 107, 220, the respective part of which is hereby incorporated by reference and forms part of the disclosure.
The binding of the substituted indole compounds to the 5-HT6 receptor was determined as described above.

T1 sequence (P50406 whole entry): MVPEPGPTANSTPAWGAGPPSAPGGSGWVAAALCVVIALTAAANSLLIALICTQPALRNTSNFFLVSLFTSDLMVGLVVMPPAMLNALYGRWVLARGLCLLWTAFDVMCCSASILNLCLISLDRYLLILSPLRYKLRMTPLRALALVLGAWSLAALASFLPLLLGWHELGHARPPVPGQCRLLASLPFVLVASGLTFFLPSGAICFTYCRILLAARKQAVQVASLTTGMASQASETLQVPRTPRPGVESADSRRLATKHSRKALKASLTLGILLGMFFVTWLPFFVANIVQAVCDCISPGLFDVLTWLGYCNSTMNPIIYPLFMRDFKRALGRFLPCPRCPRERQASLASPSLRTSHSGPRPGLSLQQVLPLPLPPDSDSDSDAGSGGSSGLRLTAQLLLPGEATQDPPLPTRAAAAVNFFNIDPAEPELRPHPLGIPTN

Compound	pKi
CN(C)C(=O)C(=O)c1c[nH]c2ccc(NS(=O)(=O)c3c(Cl)nc4sccn34)cc12 [Example 10, 2-[5-(6-Chloro-imidazo[2,1-b]thiazole-5-sulfonylamino)-1H-indol-3-yl]-N,N-dimethyl-2-oxo-acetamide]	7.74
CN(C)C(=O)C(=O)c1c[nH]c2ccc(NS(=O)(=O)c3ccc(Oc4ccccc4)cc3)cc12 [Example 20, N,N-Dimethyl-2-[5-[(4-phenoxy-phenyl)-1-sulfonylamino]-1H-indol-3-yl]-2-oxo-acetamide]	6.95
Cc1[nH]c2ccc(NS(=O)(=O)c3c(Cl)nc4sccn34)cc2c1C(=O)C(=O)N(C)C [Example 22, 2-(5-(6-chloroimidazo[2,1-b]thiazole-5-sulfonamido)-2-methyl-1H-indol-3-yl)-N,N-dimethyl-2-oxoacetamide]	7.28

Continued by rising pKi, values first:

pKi	Compound
6.65	CCN(CC)C(=O)C(=O)c1c[nH]c2ccc(NS(=O)(=O)c3c(Cl)nc4sccn34)cc12 [Example 9, 2-[5-(6-Chloro-imidazo[2,1-b]thiazole-5-sulfonylamino)-1H-indol-3-yl]-N,N-diethyl-2-oxo-acetamide]
6.79	CN(C)C(=O)C(=O)c1c[nH]c2cccc(NS(=O)(=O)c3c(Cl)nc4sccn34)c12 [Example 13, 2-[4-(6-Chloro-imidazo[2,1-b]thiazole-5-sulfonylamino)-1H-indol-3-yl]-N,N-dimethyl-2-oxo-acetamide]
